From US8871719B2, “Modified MELK peptides and vaccines containing the same” (OncoTherapy Science, Inc., priority 2010, dated 2014)
Entries after “also recorded” stand apart in the source; their conditions may differ.

Experiments:
[1] = test system: peptide-pulsed A24LCL cells; assay: In vitro CTL induction, IFN-gamma ELISPOT assay; format: cell-based, human; conditions: for IFN-gamma production of CTLs (ELISPOT): target cells pulsed with cognate peptide vs not pulsed; for CTL inducibility / CTL activity: in vitro stimulation of T-cells by peptide-loaded DCs; for Immunogenicity compared to MELK-A24-9-87_WT: CTL induction from donors B and C
Description: Monocyte-derived dendritic cells (DCs) were used as antigen-presenting cells (APCs) to induce cytotoxic T lymphocyte (CTL) responses against peptides presented on HLA. DCs were generated in vitro as described elsewhere (Nakahara S et al., Cancer Res 2003 Jul. 15, 63(14): 4112-8). Specifically, peripheral blood mononuclear cells (PBMCs) isolated from three healthy donors termed donors A, B and C (HLA-A*2402 positive) by Ficoll-Plaque (Pharmacia) solution were separated by adherence to a plastic tissue culture dish (Becton Dickinson) so as to enrich them as the monocyte fraction. The monocyte-enriched population was cultured in the presence of 1,000 U/ml of granulocyte-macrophage colony-stimulating factor (GM-CSF) (R&D System) and 1,000 U/ml of interleukin (IL)-4 (R&D System) in AIM-V Medium (Invitrogen) containing 2% heat-inactivated autologous serum (AS). After 7 days of culture, the cytokine-induced DCs were pulsed with 20 micro-g/ml of each of the synthesized peptides in the presence of 3 micro-g/ml of beta2-microglobulin for 3 hrs at 37 degrees C. in AIM-V Medium. The generated cells appeared to express DC-associated molecules, such as CD80, CD83, CD86 and HLA class II, on their cell surfaces (data not shown). These peptide-pulsed DCs were then inactivated by X-irradiation (20 Gy) and mixed at a 1:20 ratio with autologous CD8+ T cells, obtained by positive selection with CD8 Positive Isolation Kit (Dynal). These cultures were set up in 48-well plates (Corning); each well contained 1.5×10^4 peptide-pulsed DCs, 3×10^5 CD8+ T cells and 10 ng/ml of IL-7 (R&D System) in 0.5 ml of AIM-V/2% AS medium. 3 days later, these cultures were supplemented with IL-2 (CHIRON) to a final concentration of 20 IU/ml. On days 7 and 14, the T cells were further stimulated with the autologous peptide-pulsed DCs. The DCs were prepared each time by the same way described above. CTLs were tested against peptide-pulsed A24LCL cells after the 3rd round of peptide stimulation on day 21 (Tanaka H et al., Br J Cancer 2001 Jan. 5, 84(1): 94-9; Umano Y et al., Br J Cancer 2001 Apr. 20, 84(8): 1052-7; Uchida N et al., Clin Cancer Res 2004 Dec. 15, 10(24): 8577-86; Suda T et al., Cancer Sci 2006 May, 97(5): 411-9; Watanabe T et al., Cancer Sci 2005 August, 96(8): 498-506).
(§1) Specifically, peptide-pulsed A24LCL (1×10^4/well) and tumor cell lines (5×10^4/well) were prepared as stimulator cells. Cultured cells in 48 wells, CTL lines and clones were used as responder cells. IFN-gamma ELISPOT assay and IFN-gamma ELISA assay were performed under manufacture procedure.

[2] = test system: peptide-pulsed A24LCL cells; assay: CTL lines, IFN-gamma ELISA assay; format: cell-based, human
Protocol: CTLs were expanded in culture using the method similar to the one described by Riddell et al. (Walter E A et al., N Engl J Med 1995 Oct. 19, 333(16): 1038-44; Riddell S R et al., Nat Med 1996 Feb. 2(2): 216-23). A total of 5×10^4 CTLs were suspended in 25 ml of AIM-V/5% AS medium with 2 kinds of human B-lymphoblastoid cell lines, inactivated by MMC, in the presence of 40 ng/ml of anti-CD3 monoclonal antibody (Pharmingen). One day after initiating the cultures, 120 IU/ml of IL-2 were added to the cultures. The cultures were fed with fresh AIM-V/5% AS medium containing 30 IU/ml of IL-2 on days 5, 8 and 11 (Tanaka H et al., Br J Cancer 2001 Jan. 5, 84(1): 94-9; Umano Y et al., Br J Cancer 2001 Apr. 20, 84(8): 1052-7; Uchida N et al., Clin Cancer Res 2004 Dec. 15, 10(24): 8577-86; Suda T et al., Cancer Sci 2006 May, 97(5): 411-9; Watanabe T et al., Cancer Sci 2005 August, 96(8): 498-506).
as §1

[3] = test system: peptide-pulsed A24LCL cells; assay: CTL clones, IFN-gamma ELISA assay; format: cell-based, human; conditions: for IFN-gamma production of CTL clones (ELISA): donor B
Protocol: The dilutions were made to have 0.3, 1, and 3 CTLs/well in 96 round-bottomed micro titer plate (Nalge Nunc International). CTLs were cultured with 1×10^4 cells/well of 2 kinds of human B-lymphoblastoid cell lines, 30 ng/ml of anti-CD3 antibody, and 125 U/ml of IL-2 in a total of […] of AIM-V Medium containing 5% AS. 50 micro-1/well of IL-2 were added to the medium 10 days later so to reach a final concentration of 125 U/ml IL-2. CTL activity was tested on the 14th day, and CTL clones were expanded using the same method as described above (Uchida N et al., Clin Cancer Res 2004 Dec. 15, 10(24): 8577-86; Suda T et al., Cancer Sci 2006 May, 97(5): 411-9; Watanabe T et al., Cancer Sci 2005 August, 96(8): 498-506).
as §1

[4] = test system: COS7 cells transfected with MELK and HLA-A*2402; assay: Specific CTL activity against transfected COS7 cells; format: cell-based
Protocol: as §1
The cDNA encoding an open reading frame of target gene or HLA-A*2402 was amplified by PCR. The PCR-amplified products were cloned into pCAGGS vector. The plasmids were transfected into COST, which is the target genes and HLA-A24 negative cell line, using lipofectamine 2000 (Invitrogen) according to the manufacturer's recommended procedures. After 2 days from transfection, the transfected cells were harvested with versene (Invitrogen) and used as stimulator cells (5×10^4 cells/well) for CTL activity assay.

[5] = test system: tumor cell lines MDA-MB-4355 (MELK+, A24+) and KLM-1 (MELK+, A24+); assay: Specific CTL activity against tumor cell lines expressing MELK and HLA-A*2402; format: cell-based, human; conditions: for IFN-gamma production / CTL activity of CTL clone against KLM-1: KLM-1 (MELK+, A24+) compared with KP-1N
Protocol: (§2) TISI, human leukocyte antigen (HLA)-A*2402 positive B-lymphoblastoid cell line, was purchased from the IHWG Cell and Gene Bank (Seattle, Wash.). COS7, MDA-MB-435S and T47D were purchased from ATCC. KLM-1 and KP-1N were purchased from RIKEN cell bank and JCRB cell bank, respectively.
as §1

[6] = test system: T47D (MELK+, A24−) and KP-1N (MELK+, A24−); assay: Specific CTL activity against tumor cell lines expressing MELK but not HLA-A*2402; format: cell-based, human; conditions: T47D and KP-1N (MELK+, A24−)
Protocol: as §2, §1

[7] = donor A, target cells pulsed with cognate peptide vs without peptide pulse
[8] = donor C, target cells pulsed with MELK-A24-9-87_WT vs irrelevant HIV peptide
[9] = donor B, target cells pulsed with MELK-A24-9-87_WT vs irrelevant HIV peptide
[10] = target cells pulsed with MELK-A24-9-87_WT vs irrelevant HIV peptide

Sequence	IFN-gamma production of CTLs (ELISPOT) ([1]; donor B)	CTL inducibility / CTL activity [1]	IFN-gamma production of CTL lines (ELISA) [2, 7]	Immunogenicity compared to MELK-A24-9-87_WT [1]	IFN-gamma production of CTL lines (ELISA) [2, 9]	IFN-gamma production of CTL clones (ELISA) [3, 10]	further results
DYIISQDRL [SEQ ID NO: 2]							IFN-gamma production of CTLs (ELISPOT) ([1]; donor A, listed as MELK-A24-9-96): typical negative data; also recorded: specific IFN-gamma production was not shown
EYCPGGELF [MELK-A24-9-87_WT]	no specific IFN-gamma production was detected; also recorded: peptide specific IFN-gamma production was not detected	significant and specific CTL activity	potent IFN-gamma production				IFN-gamma production of CTLs (ELISPOT) ([1]; donor A): potent IFN-gamma production; also recorded: potential IFN-gamma productive ability; IFN-gamma production of CTL lines (ELISA) [2, 8]: no IFN-gamma production; also recorded: CTL line was not established; IFN-gamma production of CTL clone (ELISA) ([3]; donor A, target cells pulsed with cognate peptide vs not pulsed): potent IFN-gamma production; Specific CTL activity of CTL clone against controls ([4]; COS7 cells expressing either HLA-A*2402 or MELK): no significant specific CTL activity; Specific CTL activity of CTL clone ([4]; COS7 cells transfected with both MELK and HLA-A*2402): potent CTL activity; also recorded: specific CTL activity
EYCPGGNLF [MELK-A24-9-87_7N]	potent IFN-gamma production; also recorded: potential IFN-gamma productive ability	significant and specific CTL activity; also recorded: CTLs were successfully established		superior immunogenicity	potent IFN-gamma production	potent IFN-gamma production	IFN-gamma production of CTLs (ELISPOT) ([1]; donor C): potent IFN-gamma production; also recorded: potential IFN-gamma productive ability; CTL inducibility / CTL activity ([1]; listed as 44): particularly strong CTL inducibility; IFN-gamma production of CTL lines (ELISA) [2, 8]: peptide specific IFN-gamma production; also recorded: IFN-gamma production was detected; IFN-gamma production of CTL clone (ELISA) [3, 8]: potent IFN-gamma production; IFN-gamma production / CTL activity of CTL clone against KLM-1 [5]: specific CTL activity; CTL activity of CTL line against tumor cell lines ([5]; MDA-MB-4355 and KLM-1 (MELK+, A24+)): potent CTL activity; also recorded: specific CTL activity; CTL activity of CTL line against tumor cell lines [6]: without showing CTL activity
EYMPGGELF [MELK-A24-9-87_3M]	potent IFN-gamma production; also recorded: potential IFN-gamma productive ability	significant and specific CTL activity; also recorded: CTLs were successfully established		superior immunogenicity	potent IFN-gamma production	potent IFN-gamma production	CTL inducibility / CTL activity ([1]; listed as 41): particularly strong CTL inducibility
KYCPGGELF [MELK-A24-9-87_1K]	potent IFN-gamma production; also recorded: potential IFN-gamma productive ability	significant and specific CTL activity; also recorded: CTLs were successfully established		superior immunogenicity	potent IFN-gamma production	potent IFN-gamma production	CTL inducibility / CTL activity ([1]; listed as 35): particularly strong CTL inducibility
LYVLMCGFL [SEQ ID NO: 1]			potent IFN-gamma production				IFN-gamma production of CTLs (ELISPOT) ([1]; donor A, listed as MELK-A24-9-199): potent IFN-gamma production; also recorded: potential IFN-gamma productive ability; IFN-gamma production of CTL clone (ELISA) ([3]; donor A, target cells pulsed with cognate peptide vs not pulsed, listed as MELK-A24-9-199): potent IFN-gamma production; also recorded: had the ability to recognize the peptide-pulsed target cells; IFN-gamma production / CTL activity of CTL clone against KLM-1 [5]: no IFN-gamma production
TANKIFMVL [SEQ ID NO: 21]							IFN-gamma production of CTLs (ELISPOT) ([1]; donor A, listed as MELK-A24-9-78): potent IFN-gamma production; also recorded: potential IFN-gamma productive ability
VYKRLVEDIL [SEQ ID NO: 23]		significant and specific CTL activity	potent IFN-gamma production				IFN-gamma production of CTLs (ELISPOT) ([1]; donor A, listed as MELK-A24-10-637): potent IFN-gamma production; also recorded: potential IFN-gamma productive ability
